The source of these data is patent US10526502B2, “Container coating system” (SWIMC LLC, priority 2012, dated 2020).

System in one series: not listed separately
Description: suitable genotoxicity assays (e.g., Ames II assay). The class given is cell-based.
Settings: not given
As for the experimental part:
A solution of 4,4′-methylenebis(2,6-di-t-butylphenol) (500 grams, 1.076 moles obtained from Albemarle Corporation) in anhydrous dimethylformamide (1.5 liters) was cooled to −10° C. and a solution of sodium tert-pentoxide (374 grams, 3.23 moles) in anhydrous dimethylformamide (1.5 liters) was added dropwise at −10 to −5° C. The mixture was stirred for 30 minutes at −10° C. Epichlorohydrin (1.9 liters, 24.2 moles) was added via dropping funnel at −10 to −5° C. The solution was allowed to warm up to room temperature and then was heated for 16 hours at a temperature of from 75 to 82° C. After cooling down to ambient temperature, the mixture was added to cold tap water (12 liters). Ethyl acetate (5 liters) was added to the mixture, which was stirred for 10 minutes and separated. The aqueous layer was extracted again with additional ethyl acetate (3 liters). The combined ethyl acetate extracts were washed twice with brine (2×6 liters), dried over anhydrous sodium sulfate (600 grams), and filtered. The solvent was removed under reduced pressure to give 887 grams of crude product as a purple oil. The crude product was dissolved in toluene (600 milliliters) and passed over a silica gel pad (1.4 kilograms), and eluted with a mixture of toluene and heptane (8 parts toluene to 2 parts heptane). The fractions containing product were combined and evaporated under reduced pressure. […]
In the case of `CC(C)(C)c1cc(Cc2cc(C(C)(C)C)c(OCC3CO3)c(C(C)(C)C)c2)cc(C(C)(C)C)c1OCC1CO1` (stereo not shown) [Diglycidyl ether of 4,4′-methylenebis(2,6-di-tert-butylphenol)], the genotoxicity result is “non-genotoxic”. With `CCCC(c1cc(C(C)(C)C)c(OCC2CO2)cc1C)c1cc(C(C)(C)C)c(OCC2CO2)cc1C` (stereo not shown) [Diglycidyl ether of 4,4′Butylidenebis(2-t-butyl-5-methylphenol))], the genotoxicity entry is recorded as “non-genotoxic”.

The subject of a further series is MCF-7, clone WS8, cells. Description: MCF-7 cell proliferation assay of estrogenic activity. Format: cell-based, human. Particulars: logarithmic (base 10) Relative Proliferative Effect vs 17-beta estradiol; values 'expected or measured'. From the text:
The MCF-7 assay is a useful test for assessing whether a polyhydric phenol compound is appreciably non-estrogenic. The MCF-7 assay uses MCF-7, clone WS8, cells to measure whether and to what extent a substance induces cell proliferation via estrogen receptor (ER)-mediated pathways. The method is described in “Test Method Nomination: MCF-7 Cell Proliferation Assay of Estrogenic Activity” submitted for validation by CertiChem, Inc. to the National Toxicology Program Interagency Center for the Evaluation of Alternative Toxicological Methods (NICEATM) on Jan. 19, 2006 (available online at iccvam.niehs.nih.gov/methods/endocrine/endodocs/SubmDoc.pdf).
A brief summary of the method of the aforementioned MCF-7 assay is provided below. MCF-7, clone WS8, cells are maintained at 37° C. in RMPI (Roswell Park Memorial Institute medium) containing Phenol Red (e.g., GIBCO Catalog Number 11875119) and supplemented with the indicated additives for routine culture. An aliquot of cells maintained at 37° C. are grown for two days in phenol-free media containing 5% charcoal stripped fetal bovine serum in a 25 cm^2 tissue culture flask. Using a robotic dispenser such as an EPMOTION™ 5070 unit from Eppendorf AG, MCF-7 cells are then seeded at 400 cells per well in 0.2 ml of hormone-free culture medium in CORNING™ 96-well plates from Corning Life Sciences. The cells are adapted for 3 days in the hormone-free culture medium prior to adding the chemical to be assayed for estrogenic activity. The media containing the test chemical is replaced daily for 6 days. At the end of the 7 day exposure to the test chemical, the media is removed, the wells are washed once with 0.2 ml of HBSS (Hanks' Balanced Salt Solution), and then assayed to quantify amounts of DNA per well using a micro-plate modification of the Burton diphenylamine (DPA) assay, which is used to calculate the level of cell proliferation. […]
Table I shown below includes exemplary preferred polyhydric phenol compounds of Formula II and their expected or measured logarithmic RPE values in the MCF-7 assay.
Consider `C[C@]12CC[C@@H]3c4ccc(O)cc4CC[C@H]3[C@@H]1CC[C@@H]2O` [17β-estradiol], for which the “Log RPE” value amounted to 2.00. In the case of `Oc1ccc(Cc2ccc(O)cc2)cc1` [Bisphenol F], the “Log RPE” value is −2.

As for `O=S(=O)(c1ccc(O)cc1)c1ccc(O)cc1` [Bisphenol S], the “Log RPE” value was −2.

The target of another series is T1, human estrogen receptor (Homo sapiens, UniProt P03372).
T1 sequence (P03372 1-595): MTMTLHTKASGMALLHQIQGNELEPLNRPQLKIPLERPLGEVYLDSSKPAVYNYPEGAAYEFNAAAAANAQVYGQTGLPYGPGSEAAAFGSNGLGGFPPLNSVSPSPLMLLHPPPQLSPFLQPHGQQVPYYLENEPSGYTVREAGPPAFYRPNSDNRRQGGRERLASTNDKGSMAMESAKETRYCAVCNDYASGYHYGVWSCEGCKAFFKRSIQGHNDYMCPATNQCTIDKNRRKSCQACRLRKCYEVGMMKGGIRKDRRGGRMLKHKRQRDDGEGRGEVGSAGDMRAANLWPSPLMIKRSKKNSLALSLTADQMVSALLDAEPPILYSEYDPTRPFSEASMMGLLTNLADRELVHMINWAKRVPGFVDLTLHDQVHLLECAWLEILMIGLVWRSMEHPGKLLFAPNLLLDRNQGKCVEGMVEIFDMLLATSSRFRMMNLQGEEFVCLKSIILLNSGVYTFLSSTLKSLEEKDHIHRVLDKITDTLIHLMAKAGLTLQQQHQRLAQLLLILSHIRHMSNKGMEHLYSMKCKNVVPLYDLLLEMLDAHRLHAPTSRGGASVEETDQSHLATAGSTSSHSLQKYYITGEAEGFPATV
Briefly: suitable in vitro assay whose results are directly correlated to the MCF-7 assay. To be noted: in vitro assay correlated to MCF-7 through common reference compounds.
As to `Cc1cc(Cc2cc(C)c(O)c(C)c2)cc(C)c1O` [Structure 6, 4,4′-methylenebis(2,6-dimethylphenol)], the estrogenic activity entry was “do not exhibit appreciable estrogenic activity”. Consider `CCCC(c1cc(C(C)(C)C)c(O)cc1C)c1cc(C(C)(C)C)c(O)cc1C` [Structure 7, 4,4′-butylidenebis(2-t-butyl-5-methylphenol)], for which the estrogenic activity result is reported as “do not exhibit appreciable estrogenic activity”. Regarding `CC(C)(C)c1cc(Cc2cc(C(C)(C)C)c(O)c(C(C)(C)C)c2)cc(C(C)(C)C)c1O` [Structure 8, 4,4′-methylenebis(2,6-di-t-butylphenol)], the estrogenic activity entry is “do not exhibit appreciable estrogenic activity”.

With `Cc1cc(Cc2cc(C)cc(C(C)(C)C)c2O)c(O)c(C(C)(C)C)c1` [Structure 9], the estrogenic activity result is “do not exhibit appreciable estrogenic activity”. As for `CC(C)(C)c1cc(O)c(C(C)(C)C)cc1O` [Structure 12, 2,5-di-t-butylhydroquinone], the estrogenic activity entry is given as “do not exhibit appreciable estrogenic activity”.
